Source: patent publication US11180487B2, “Substituted cyanoindoline derivatives as NIK inhibitors” (Janssen Pharmaceutica NV, priority 2016, dated 2021)
Like-named read-outs stand apart in the source and are kept apart here.

How the values were obtained:
[1] = target: recombinant human NF-kappaB-inducing kinase (NIK/MAP3K14) (Homo sapiens, UniProt Q99558); experiment: Inhibition of auto-phosphorylation of recombinant human NIK/MAP3K14 activity (AlphaScreen), Biological Assay A; type: biochemical; conditions: averaged values over all measurements on all batches
Sequence of recombinant human NF-kappaB-inducing kinase (NIK/MAP3K14) (Q99558 whole entry): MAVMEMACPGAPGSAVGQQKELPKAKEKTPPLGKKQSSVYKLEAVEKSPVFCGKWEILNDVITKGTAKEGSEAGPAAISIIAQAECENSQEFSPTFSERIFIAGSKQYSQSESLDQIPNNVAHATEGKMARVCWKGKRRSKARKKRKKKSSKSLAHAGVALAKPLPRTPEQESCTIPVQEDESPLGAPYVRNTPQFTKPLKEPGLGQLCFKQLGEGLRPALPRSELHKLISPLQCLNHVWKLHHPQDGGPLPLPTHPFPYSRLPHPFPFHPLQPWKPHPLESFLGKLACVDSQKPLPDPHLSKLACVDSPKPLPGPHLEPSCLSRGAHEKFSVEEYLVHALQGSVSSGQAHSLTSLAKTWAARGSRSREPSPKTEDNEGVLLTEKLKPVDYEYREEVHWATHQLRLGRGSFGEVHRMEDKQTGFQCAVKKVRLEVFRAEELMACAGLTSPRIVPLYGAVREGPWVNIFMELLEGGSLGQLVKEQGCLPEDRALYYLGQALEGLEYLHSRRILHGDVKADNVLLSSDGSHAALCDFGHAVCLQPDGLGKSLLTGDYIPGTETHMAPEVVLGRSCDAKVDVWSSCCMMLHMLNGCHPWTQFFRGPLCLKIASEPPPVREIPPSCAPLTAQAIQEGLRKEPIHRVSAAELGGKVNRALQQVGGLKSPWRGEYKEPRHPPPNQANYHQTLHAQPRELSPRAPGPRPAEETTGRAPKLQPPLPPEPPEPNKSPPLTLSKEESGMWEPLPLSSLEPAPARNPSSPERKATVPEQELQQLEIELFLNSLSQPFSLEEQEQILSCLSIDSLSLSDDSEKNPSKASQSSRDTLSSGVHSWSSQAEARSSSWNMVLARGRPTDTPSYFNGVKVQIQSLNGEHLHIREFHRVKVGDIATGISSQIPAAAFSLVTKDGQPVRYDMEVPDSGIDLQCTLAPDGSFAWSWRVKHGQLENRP
Outline: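 AlphaScreen detection with anti-phospho-IKK Ser176/180 antibody plus Protein A acceptor/glutathione donor beads after 1 h, 25 °C reaction of 0.2 nM GST-tagged kinase, 25 μM ATP and compound. Buffer: 50 mM Tris pH 7.5, MgCl2, EGTA, DTT, vanadate; 1% DMSO. IC50 fitted sigmoidally to % inhibition.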

[2] = system: P-IKKα levels in L363 (NIK translocated multiple myeloma) cells; experiment: Effect of compounds on P-IKKα levels in L363 cells (Mesoscale sandwich immuno-assay), Biological Assay B; type: cell-based, human; conditions: 2 hr treatment, averaged values, read-out: Inhibition of pIKKα_L-363 (IC50 (nM))
Outline: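 P-IKKα in lysates quantified by Mesoscale sandwich immunoassay after 2 h compound exposure in 1% DMSO, duplicate wells, 8-point 1:3 series. Human L363 cells had been preincubated 24 h with BAFF (1 μg/ml stock). Blank (10 μM ADS125117) subtracted; IC50 fitted sigmoidally to % inhibition of control.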

[3] = system: JJN-3 (NIK translocated) multiple myeloma cells; experiment: Antiproliferative activity on JJN-3 multiple myeloma cells (CellTiter-Glo, 96 hr), Biological Assay C; type: cell-based, human; conditions: JJN-3 (NIK translocated) cells, averaged values, read-out: JJN-3 Proliferation inhibition (IC50 (nM))
Outline: (§1)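 Growth read-out was CellTiter-Glo luminescence after 96 h compound exposure, given as percent of no-drug control after subtracting a blank of cells read at dosing. Compounds ran as 9-point serial 1:3 dilutions in 0.3% DMSO, duplicate wells, on JJN-3 (15000/well) or KMS12-BM (20000/well) cells in RPMI 1640/10% FCS.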

[4] = system: KMS12-BM (NIK WT) multiple myeloma cells; experiment: Antiproliferative activity on KMS12-BM multiple myeloma cells (CellTiter-Glo, 96 hr), Biological Assay C; type: cell-based, human; conditions: averaged values, read-out: KMS-12 Proliferation inhibition (IC50 (nM))
Outline: as §1

Row | Structure (SMILES) | IC50 [1] | IC50 ([2]; Homo sapiens, L-363, 2 h) | melting point | IC50 ([3]; Homo sapiens, JJN-3, 96 h) | IC50 ([4]; Homo sapiens, KMS-12-BM, 96 h) | IC50 [2] | IC50 [3] | IC50 [4]
1 | COC(=O)c1cc(OC)c(Nc2nccc(-c3cc(C#N)c4c(c3)C(C)(C)CN4)n2)cc1Cl [Compound 106] | 63.1 nM | 123 nM | 208 °C | 1620 nM | > 10000 nM |  |  | 
2 | COc1cc(C(=O)NC2CCOCC2)c(Cl)cc1Nc1nccc(-c2cc(C#N)c3c(c2)C(C)(C)CN3)n1 [Compound 108] | 11 nM | 3.8 nM | > 260 °C | 39 nM | > 3980 nM |  |  | 
3 | CC(=O)OC[C@@]1(C)CNc2c(C#N)cc(-c3ccnc(Nc4cc(C#N)ccc4C)n3)cc21 [Compound 125] | 13.8 nM | 3.6 nM | 213 °C | 182 nM | ~6920 nM |  |  | 
4 | Cc1ccc(C#N)cc1Nc1nccc(-c2cc(C#N)c3c(c2)[C@@](C)(COC(=O)C(C)C)CN3)n1 [Compound 126] | 112 nM | ~6.9 nM | 200 °C | 151 nM | ~8910 nM |  |  | 
5 | COCCOc1ccc(C#N)cc1Nc1nccc(-c2cc(C#N)c3c(c2)[C@@](C)(COC(C)=O)CN3)n1 [Compound 127] | 129 nM | 11.5 nM | 158 °C | 570 nM | > 10000 nM |  |  | 
6 | CC(=O)OC[C@@]1(C)CNc2c(C#N)cc(-c3ccnc(Nc4cc(C#N)ccc4OCC4CC4)n3)cc21 [Compound 128] | 251 nM | 20.9 nM | 156 °C | 407 nM | > 10000 nM |  |  | 
7 | Cc1ccc(C#N)cc1Nc1nccc(-c2cc(C#N)c3c(c2)[C@@](C)(CO)CN3)n1 [Compound 129] | 1.4 nM |  | 190 °C |  |  | 3.2 nM | 330 nM | ~7940 nM
8 | Cc1ccc(C#N)cc1Nc1nccc(-c2cc(C#N)c3c(c2)[C@@](C)(CO)CN3)n1 [Compound 130] | 1.5 nM |  | 264 °C |  |  | 2.2 nM | 167 nM | 9770 nM
9 | Cc1ccc(C#N)cc1Nc1nccc(-c2cc(C#N)c3c(c2)[C@@](C)(CO)CN3)n1 [Compound 131] | 1.3 nM |  | 174 °C |  |  | 4.7 nM | 324 nM | > 10000 nM
10 | Cc1ccc(C#N)cc1Nc1nccc(-c2cc(C#N)c3c(c2)[C@@](C)(CO)CN3)n1 [Compound 132] | 1.3 nM |  | 234 °C |  |  | 2.2 nM | 128 nM | 5010 nM
11 | Cc1ccc(C#N)cc1Nc1nccc(-c2cc(C#N)c3c(c2)[C@@](C)(CO)CN3)n1 [Compound 133] | 0.7 nM |  | 262 °C |  |  | 3 nM | 170 nM | 4360 nM
12 | [2H]C([2H])(O)[C@@]1(C)CNc2c(C#N)cc(-c3ccnc(Nc4cc(C#N)ccc4C)n3)cc21 [Compound 136] | 1.7 nM | < 0.66 nM | 219 °C | 269 nM | > 10000 nM |  |  | 
13 | Cc1ccc(C#N)cc1Nc1nccc(-c2cc(C#N)c3c(c2)[C@@](C)(COC(=O)CN)CN3)n1 [Compound 137] | 6 nM | 2.7 nM | 290 °C | 545 nM | ~10000 nM |  |  | 
14 | Cc1ccc(C#N)cc1Nc1nccc(-c2cc(C#N)c3c(c2)[C@@](C)(COC(=O)[C@@H](N)C(C)C)CN3)n1 [Compound 139] | 56.2 nM | 26.9 nM | 202 °C | 302 nM | ~8910 nM |  |  | 
15 | Cc1ccc(C#N)cc1Nc1nccc(-c2cc(C#N)c3c(c2)[C@@](C)(COC(=O)[C@H](N)Cc2ccccc2)CN3)n1 [Compound 140] | 51.3 nM | 56.2 nM | 180 °C | 550 nM | ~9120 nM |  |  | 
16 | Cc1ccc(C#N)cc1Nc1nccc(-c2cc(C#N)c3c(c2)[C@@](C)(COC(=O)[C@@H](C)N)CN3)n1 [Compound 141] | 8.7 nM | 2.2 nM | 212 °C | 33 nM | > 10000 nM |  |  | 
17 | Cc1ccc(C#N)cc1Nc1nccc(-c2cc(C#N)c3c(c2)[C@@](C)(COC(=O)CC(=O)O)CN3)n1 [Compound 142a] | 12 nM |  | 138 °C |  | > 10000 nM | 2.2 nM | 3630 nM | 
